Consider one molecule from patent publication EP4186500A1, “MEK INHIBITORS FOR THE PREVENTION AND TREATMENT OF LONG COVID SYNDROME” (Atriva Therapeutics GmbH, priority 2021, dated 2023).

For this assay, the system named is VSV ΔG/GFP-Luc+SΔ21. Type of assay: cell-based.

Take `O=C(NOCC1CC1)c1ccc(F)c(F)c1Nc1ccc(I)cc1Cl` [CI-1040, reference compound]: the “internalization of the VSV pseudotype virus (GFP-positive cells)” value was “reduction in the internalization of the VSV pseudotype virus”.
